The record followed here is BindingDB's records for patent US20250248973 (Corbus Pharmaceuticals, 2025).

In this experiment the target is Isoform 3 of Cannabinoid receptor 1 (Human, UniProt P21554). Briefly: Biochemical Assay. On the procedure:
hCB1/hCB1 b Gai Cyclic AMP (cAMP) Assays: Cells were seeded in a 384-well plate at an appropriate density from frozen cells. The cAMP assays were performed according to the manufacturer's protocol using MULTISCREEN™ TR-FRET cAMP 1.0 No Wash Assay Kit. Cells (hCB1 or hCB1 b) were pre-incubated with customer compounds for 30 minutes at rt followed by addition of EC80 CP55940 concentration and Forskolin. Cells were then incubated for 20 minutes at 37C. The reaction was terminated by sequentially adding sequentially adding MULTISCREEN™ Eu-labeled cAMP and MULTISCREEN™ 650-labeled anti-cAMP antibody in lysis buffer. The plate was then incubated at rt for 30 minutes before reading fluorescent emissions at 620 nm and 665 with excitation at 314 nm on FlexStation III (Molecular Devices).

The IC50 is the point on the concentration scale where inhibition reaches its midpoint. Low values mean higher potency, high ones lower potency.

Chain of Isoform 3 of Cannabinoid receptor 1 (P21554 as listed by the source): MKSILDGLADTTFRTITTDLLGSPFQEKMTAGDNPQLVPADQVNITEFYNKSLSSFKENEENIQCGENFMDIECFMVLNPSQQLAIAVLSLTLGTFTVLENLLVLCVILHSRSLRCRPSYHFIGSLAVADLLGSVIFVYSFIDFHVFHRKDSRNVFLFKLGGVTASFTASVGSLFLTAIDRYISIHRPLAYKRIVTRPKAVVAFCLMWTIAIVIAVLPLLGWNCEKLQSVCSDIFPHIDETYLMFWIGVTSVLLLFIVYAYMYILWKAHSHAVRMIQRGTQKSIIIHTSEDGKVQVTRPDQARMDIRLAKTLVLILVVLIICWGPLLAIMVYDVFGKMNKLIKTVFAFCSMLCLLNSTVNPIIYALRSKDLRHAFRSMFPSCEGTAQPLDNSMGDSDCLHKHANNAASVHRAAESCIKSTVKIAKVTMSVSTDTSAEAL

In the case of `C#Cc1cccc(S(=O)(=O)N=C(NCCS(N)(=O)=O)N2C[C@H](c3ccccc3)C(c3ccc(Cl)cc3)=N2)c1` [US20250248973, Compound 35], the 50% inhibitory concentration (IC50) is under 100 nM.
